The text below walks through data of US20210330611A1, “THERAPY FOR NEUROLOGICAL DISEASES/DISORDERS” (priority 2020, published 2021).

Several values for one entry are separate records, joined by “and”; a condition that tells them apart may be missing. Equal values may be shown once. Where a name gives a salt, the structure may show the parent alone. Read-outs that look alike come from different tables or passages of the source.

Holding throughout (format): cell-based, rat
Experiment [1] deals with fibrin-induced microglia activation. The experiment can be described thus: Image-based assay of fibrin-induced microglia activation (HTS and dose response). To be noted: for IC50 / inhibition at 10 µM: Rattus norvegicus, Microglia; for IC50: Table 7, read-out: fib_IC50; for inhibition at 10 µM: read-out: Fibrin % inhibition.
Experiment [2] deals with fibrin- and LPS-induced microglia activation. Nature of the experiment: cells.
The test system of experiment [3] is LPS-induced microglia activation. The experiment can be described thus: Image-based assay of LPS-induced microglia activation (HTS and dose response). The settings on record: for inhibition at 10 µM / IC50: Rattus norvegicus, Microglia; for inhibition at 10 µM: read-out: LPS % inhibition; for IC50: Table 7, read-out: LPS_IC50.
Setting [4] is: Table 7, fib = fibrin, LPS, tox = toxicity.
Setting [5] is: primary microglia HTS, fibrin stimulation, compounds at 10 μM.
Where [6] appears, read: quadrant by fibrin and LPS inhibition, HTS at 10 μM.
The mark [7] stands for this setting: primary microglia HTS, LPS stimulation, compounds at 10 μM.
The mark [8] stands for this setting: primary microglia HTS, fibrin stimulation, increased cell size (>800 μm^2) as marker of activation.
[9] abbreviates: quadrant by fibrin and LPS inhibition in HTS of 1907 compounds.
Where [10] appears, read: 48 h, primary microglia HTS, LPS stimulation, increased cell size (>800 μm^2) as marker of activation.
The mark [11] stands for this setting: classification by fibrin and LPS inhibition, HTS at 10 μM.

Regarding `CC(C)NCC(O)COc1cccc2ccccc12` (stereo not drawn), the Fibrin % inhibition in experiment [1] (10 µM) is given as −18%. Besides, the “Quadrant (FIG. 5b)” value in experiment [2] is “Q4”. Besides, in experiment [3], the inhibition at 10 µM is -5%.

As to `CC(C)CCCCCOC(=O)COc1ccc(Cl)cc1Cl`, the IC50 in experiment [1] amounted to 906 nM; in experiment [3] it was 1010 nM. Moreover, in experiment [2] (setting [4]), the Activity entry is reported as “fib/LPS”.

As for `Cc1cc(C(C)(C)C)c(O)c(C(C)(C)C)c1`, the Fibrin % inhibition in experiment [1] (setting [5]) was −4%. Further, in experiment [2] (setting [6]), the “Quadrant (FIG. 5b)” value is “Q4”. Also, the LPS % inhibition in experiment [3] (setting [7]) is listed as 5%.

Consider `O=C(O)c1nc2cc(Cl)c(Cl)cc2nc1O`, for which the IC50 in experiment [1] is 2650 nM; in experiment [3], no less than 5000 nM. In experiment [2] (setting [4]), the Activity result is on record as “fib/LPS”.

For the compound `C[C@H](N)[C@H](O)c1ccccc1.Cl`, the Fibrin % inhibition in experiment [1] is listed as −15%. For the same compound, in experiment [2], the “Quadrant (FIG. 5b)” value is “Q4”. Moreover, the LPS % inhibition in experiment [3] came to 7%.

For the compound `C[C@@H]([C@H](O)c1ccccc1)N(C)C`, in experiment [1] (setting [5]), the Fibrin % inhibition is on record as −52%. In addition, in experiment [2] (setting [6]), the “Quadrant (FIG. 5b)” value is given as “Q4”. For the same compound, the LPS % inhibition in experiment [3] (setting [7]) was 7%.

Consider `CCCCC(C)(O)C/C=C/[C@H]1[C@H](O)CC(=O)[C@@H]1CCCCCCC(=O)OC` (mixture of isomers) [Misoprostol], for which the results for the inhibition at 10 µM in experiment [1] (setting [8]) and in experiment [3] (setting [10]) were 13% and 32%, respectively. The “Quadrant (FIG. 5b)” value in experiment [2] (setting [9]) is on record as “Q4”.

For `O=c1c(-c2ccccc2)coc2cc(O)cc(O)c12` [5,7-dihydroxyisoflavone], the IC50 turned out to be 172 nM in experiment [1] and 21 nM in experiment [3]. The Activity entry in experiment [2] (setting [4]) is recorded as “fib/LPS”.

In experiment [1], `CC(=O)OCC(=O)[C@@]1(O)CC[C@H]2[C@@H]3C[C@H](C)C4=CC(=O)C=C[C@]4(C)[C@H]3[C@@H](O)C[C@@]21C` [6alpha-methylprednisolone acetate] registered a fib specificity of 1.0 and a fib_HS of −0.26. The Activity entry in experiment [2] is given as “fib/LPS”. In experiment [3], the LPS specificity was determined as 1.0 and the LPS_HS is −0.40.

For `C[C@H]1O[C@H](O[C@H]2[C@H](O)[C@@H](O)[C@@H](O[C@H]3[C@H](O)[C@@H](O)C(O)O[C@@H]3CO)O[C@@H]2CO)[C@H](O)[C@@H](O)[C@@H]1N[C@H]1C=C(CO)[C@@H](O)[C@H](O)[C@H]1O` (stereo partly drawn) [Acarbose], the inhibition at 10 µM in experiment [1] (setting [5]) is -22%; in experiment [1] (setting [8]), 81%; in experiment [3] (setting [10]), 62%; in experiment [3] (setting [7]), -5%. The “Quadrant (FIG. 5b)” value is “Q2” in experiment [2] (setting [9]) and “Q4” in experiment [2] (setting [6]).

As for `O=C(O)COC(=O)Cc1ccccc1Nc1c(Cl)cccc1Cl` [Aceclofenac], the inhibition at 10 µM in experiment [1] (setting [5]) was -2%; in experiment [3] (setting [7]), 8%. The “Quadrant (FIG. 5b)” value in experiment [2] (setting [6]) is recorded as “Q4”.

For the compound `NCCCC(O)(P(=O)(O)O)P(=O)(O)O` [Alendronic acid], the figures for the inhibition at 10 µM in experiment [1] and in experiment [3] were 5% and 18%, respectively. Also, in experiment [2], the “Quadrant (FIG. 5b)” value is given as “Q4”.

Consider `CC(=O)Oc1c(C)c(C)c2c(c1C)CCC(C)(CCCC(C)CCCC(C)CCCC(C)C)O2` (stereo not drawn) [Alpha-tochopheryl Acetate], for which the Fibrin % inhibition in experiment [1] (setting [5]) is reported as 22%. For the same compound, the “Quadrant (FIG. 5b)” value in experiment [2] (setting [6]) was “Q4”. Moreover, the LPS % inhibition in experiment [3] (setting [7]) worked out at 8%.

`CCCCc1oc2ccccc2c1C(=O)c1cc(I)c(OCCN(CC)CC)c(I)c1` [Amiodarone]: the inhibition at 10 µM in experiment [1] is -4%; in experiment [3], 13%. Further, the “Quadrant (FIG. 5b)” value in experiment [2] is on record as “Q4”.

Take `C/C=C/c1ccc(OC)cc1` [Anethole]: the inhibition at 10 µM was -37% in experiment [1] (setting [5]) and 13% in experiment [3] (setting [7]). The “Quadrant (FIG. 5b)” value in experiment [2] (setting [6]) is recorded as “Q4”.

As for `COc1ccc(C(=O)N2CCCC2=O)cc1` [Aniracetam], the inhibition at 10 µM in experiment [1] (setting [5]) stood at 6%; in experiment [3] (setting [7]), 4%. In addition, in experiment [2] (setting [6]), the “Quadrant (FIG. 5b)” value is on record as “Q4”.

On to `CN1CCc2cccc3c2[C@H]1Cc1ccc(O)c(O)c1-3` [Apomorphine Hydrochloride], for which the inhibition at 10 µM in experiment [1] was 11%; in experiment [3] it was -4%. Further, the “Quadrant (FIG. 5b)” value in experiment [2] is “Q4”.

Regarding `CN1[C@@H]2CC[C@H]1C[C@@H](OC(=O)C(CO)c1ccccc1)C2` (stereo partly drawn) [Atropine], the inhibition at 10 µM was -21% in experiment [1] and 4% in experiment [3].

Consider `COc1ccccc1OCCNCC(O)COc1cccc2[nH]c3ccccc3c12` (stereo not drawn) [Carvedilol, Carvedilol Phosphate], for which the “Quadrant (FIG. 5b)” value in experiment [2] was “Q4”. In experiment [3] (10 µM), the LPS % inhibition was 15% and 19%.

With `O=C(O)c1cn(C2CC2)c2cc(N3CCNCC3)c(F)cc2c1=O` [Ciprofloxacin], the inhibition at 10 µM in experiment [1] is -30%; in experiment [3], 17%.

Turning to `C[C@H]1O[C@@H](O[C@H]2[C@@H](O)C[C@H](O[C@H]3[C@@H](O)C[C@H](O[C@H]4CC[C@@]5(C)[C@H](CC[C@@H]6[C@@H]5C[C@@H](O)[C@]5(C)[C@@H](C7=CC(=O)OC7)CC[C@]65O)C4)O[C@@H]3C)O[C@@H]2C)C[C@H](O)[C@@H]1O` [Digoxin], the “Quadrant (FIG. 5b)” value in experiment [2] is “Q3 and Q4”.

On to `CC[C@H]1OC(=O)[C@H](C)[C@@H](O[C@H]2C[C@@](C)(OC)[C@@H](O)[C@H](C)O2)[C@H](C)[C@@H](O[C@@H]2O[C@H](C)C[C@H](N(C)C)[C@H]2O)[C@](C)(O)C[C@@H](C)C(=O)[C@H](C)[C@@H](O)[C@]1(C)O` [Erythromycin], for which the “Quadrant (FIG. 5b)” value in experiment [2] (setting [11]) is “Q4”. In experiment [3] (setting [7]), the inhibition at 10 µM worked out at 20%. This compound returned an LPS % inhibition in experiment [3] (primary microglia HTS, LPS stimulation, compounds at 10 μM, 10 µM) of 13%.

On to `C[C@]12CC[C@@H]3c4ccc(O)cc4C[C@@H](CCCCCCCCC[S+]([O-])CCCC(F)(F)C(F)(F)F)[C@H]3[C@@H]1CC[C@@H]2O` (stereo partly drawn) [Fulvestrant], for which the “Quadrant (FIG. 5b)” value in experiment [2] (setting [9]) is listed as “Q4”. For the same compound, the inhibition at 10 µM in experiment [3] (48 h, primary microglia HTS, LPS stimulation, activation = cell size >800 μm2) is 15%.

As to `CN1[C@@H]2CC[C@H]1C[C@@H](OC(=O)[C@H](CO)c1ccccc1)C2` [Hyoscyamine], in experiment [3] (48 h), the inhibition at 10 µM is 13%.

For `CN1CCCCC1CCN1c2ccccc2Sc2ccc([S+](C)[O-])cc21` (stereo not drawn) [Mesoridazine], the inhibition at 10 µM in experiment [1] is -5%.

For `OCc1cccnc1` [Nicotinyl Alcohol Tartrate], the inhibition at 10 µM in experiment [1] (setting [8]) was -5%; in experiment [3] (setting [10]), 4%.

As to `C#CC1(O)CC[C@H]2[C@@H]3CCC4=CC(=O)CC[C@@H]4[C@H]3CC[C@@]21CC` (stereo partly drawn) [Norgestrel, Levonorgestrel], the Fibrin % inhibition in experiment [1] (setting [8]) turned out to be 13%. In experiment [3] (primary microglia HTS, LPS stimulation, increased cell size (>800 μm^2) as marker of activation), the LPS % inhibition is 14%.

For the compound `CCn1cc(C(=O)O)c(=O)c2cc(F)c(N3CCN(C)CC3)cc21` [Pefloxacin], the inhibition at 10 µM in experiment [3] (48 h) was found to be 21%.

`CN1CCN(CCCN2c3ccccc3Sc3ccc(Cl)cc32)CC1` [Prochlorperazine dimaleate, reference compound]: in experiment [2], the Activity entry is given as “fib/LPS” and the “Quadrant (FIG. 5b)” value is listed as “Q4”.

Turning to `Cc1cc2nc3c(=O)[nH]c(=O)nc-3n(C[C@H](O)[C@H](O)[C@H](O)CO)c2cc1C` [Riboflavin], the “Quadrant (FIG. 5b)” value in experiment [2] is on record as “Q4”.

`CC(=O)S[C@@H]1CC2=CC(=O)CC[C@]2(C)[C@H]2CC[C@@]3(C)[C@@H](CC[C@@]34CCC(=O)O4)[C@H]12` [Spironolactone]: in experiment [2], the “Quadrant (FIG. 5b)” value is given as “Q4”. Further, in experiment [3] (48 h), the inhibition at 10 µM turned out to be 20%.

For the compound `Cc1cn([C@H]2C[C@H](N=[N+]=[N-])[C@@H](CO)O2)c(=O)[nH]c1=O` [Zidovudine], the “Quadrant (FIG. 5b)” value in experiment [2] is “Q4”. The compound further registered an LPS % inhibition in experiment [3] (10 µM) of 13%. Further, the inhibition at 10 µM in experiment [3] was determined as 9%.

On to Dimenhydrinate, for which, in experiment [2] (setting [11]), the “Quadrant (FIG. 5b)” value was “Q4”.

For orientation: inhibition means the relative decrease from the control value, in per cent.
